{"source": "patent US6624165B2", "about": "“Cyclopentene derivatives useful as antagonists of the motilin receptor” (Ortho-McNeil Pharmaceutical, Inc., priority 2000, dated 2003)", "target": "T1, motilin receptors located on the colon of mature rabbits (Oryctolagus cuniculus, UniProt G1T803)", "T1 construct": "The muscle tissues were homogenized in 10 volumes of buffer; from tissue; host or cells: colon smooth muscle of mature New Zealand rabbits, crude membrane homogenate", "T1 sequence (G1T803 1-400)": "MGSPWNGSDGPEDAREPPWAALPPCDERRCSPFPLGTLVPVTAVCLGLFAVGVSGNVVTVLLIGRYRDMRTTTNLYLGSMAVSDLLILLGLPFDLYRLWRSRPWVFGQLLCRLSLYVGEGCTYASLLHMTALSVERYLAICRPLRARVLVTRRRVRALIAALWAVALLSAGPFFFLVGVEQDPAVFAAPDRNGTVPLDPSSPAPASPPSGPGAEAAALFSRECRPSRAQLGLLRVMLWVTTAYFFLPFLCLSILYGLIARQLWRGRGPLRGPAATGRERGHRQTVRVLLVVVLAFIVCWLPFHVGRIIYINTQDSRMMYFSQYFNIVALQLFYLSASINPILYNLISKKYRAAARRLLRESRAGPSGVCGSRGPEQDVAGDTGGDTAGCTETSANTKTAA", "assay": "Competition with radiolabeled motilin (porcine) for motilin receptors of rabbit colon membranes", "assay_type": "binding", "details": "@100 nM, I125 motilin (porcine)", "procedure": "A compound of the invention was tested for its ability to compete with radiolabeled motilin (porcine) for the motilin receptors located on the colon of mature rabbits. The colon from mature New Zealand rabbits was removed, dissected free from the mucosa and serosa layers, and diced into small pieces. The muscle tissues were homogenized in 10 volumes of buffer (50 mM Tris-Cl 10 MM MgCl2, 0.1 mg/mL bactracin, and 0.25 mM Peflabloc, pH 7.5) in a Polytron (29,000 rpm, 4×15 seconds). The homogenate was centrifuged at 1000×g for 15 min. and the supernatant discarded. The pellet was washed twice before being suspended in homogenizing buffer. This crude homogenate was then passed first through a 19 gauge needle then a 23 gauge needle to further suspend the material and stored at −80° C. […] The pellet was counted in the gamma counter to determine the percentage of […] motilin and thereby the percent inhibition of the test compound.\n% Inhibition was Determined by Standard Techniques"}
{"molecule": "O=C(Nc1nncs1)N(CC1=CC(Cc2ccccc2)(NC(=O)C(Cl)(Cl)Cl)CC1)c1cccc(OCCN2CCOCC2)c1", "note": "(stereo not shown) [Example 2, 3-Benzyl-3-trichloroacetylamino—N-[(3-(2-morpholinoethoxy)phenyl)-N-[(1,3,4-thiadiazol-2-yl)aminocarbonyl)amino]methylcyclopentene]", "values": [{"measurement": "% Inhibition", "result": 17, "unit": "%"}]}
